Reference: US10238738B2, “Methods of modulating immune system responses” (priority 2014, dated 2019)

Key:
Format in all cases: cell-based, human
[1] = test system: HIV gene expression from latently-infected cells; assay: Latent HIV-1 reporter Jurkat T cell line (RG5), DsRed expression; settings: FIG. 11B
Description: The full-length HIV-1 molecular clone pLAl containing the following modifications was used as the reporter backbone: Avrll deletion of the 3′ end of Gag and the entire coding sequence of Pol, and a the Ndel/Stul deletion of the 3′ end of Env. The Dsred allele was cloned into the Nef reading frame using BamH1, and Xhol. Lentiviral particles were produced by co-transfection into 293T cells with pMDG.2 and psPAX2. Jurkat cells were transduced with the minimum dose required to see DsRed positive cells following treatment with 10 ng/ml TNFα. 48 hours post transfection, cells were treated HBP, and DsRed positive cells sorted by FACS. Cells were cultured for 14 days followed by DsRed negative cell sorting by FACS. 5 days later, cells were induced with HBP, and DsRed positive cells collected into 96 well plates (0.5 cells/well). Clones were individually tested for low basal DsRed expression, and high DsRed expression following treatment with both HBP and TNFα and termed RG5.
Live cells were re-suspended to 1×10^6 cells/ml in 2% FBS in PBS and analyzed using a FACSCalibur with CellQuest software (Becton Dickinson). Analysis was preformed using FlowJo software (TreeStar). Cell sorting was done using an Aria I cell sorter (Becton Dickinson).

[2] = test system: NF-κB dependent genes in Jurkat T cells; assay: Microarray, qRT-PCR and NF-κB subunit ELISA in Jurkat T cells; settings: compared with flagellin or TNFα, FIG. 2b,c
Experimental: RNA was isolated using an RNeasy kit (Qiagen) per manufacturers' protocol. cDNA was synthesized using the iScript cDNA synthesis kit (Bio-Rad) and treated with TURBO DNase (Life Technologies). cDNA was amplified using SsoAdvanced SYBR Green (Bio-Rad) using a C1000 thermal cycler (Bio-Rad). Target genes were amplified using the following primers: […]
Relative expression was calculated using the 2^−ΔΔCT method following normalization of target gene abundance to GAPDH. Quantitative measurements of cytokines were performed using ELISA kits form R&D Systems (KC, IL-23, IFN-β) or BD Biosciences (IL-1β, IL-8, IL-6, IL-12p70, TNF-α). Nuclear extracts were prepared from Jurkat T cells and NF-κB subunit binding was determined using the TransAM® Transcription Factor ELISA (Active Motif). Microarray
Two clonal populations of Jurkat cells were stimulated for 2 hr with purified HBP-containing supernatants, or supernatants from M. catarrhalis. RNA was extracted using RNeasy (Qiagen), labeled using Illumina TotalPrep RNA Amplification kit (Ambion) and analyzed on a human HT-12 v4.0 Beadchip (Illumina). Data normalization and analysis were provided as a service by the Bioinformatics Department of the University Health Network (UHN) Micro array Centre, Toronto, ON. Data was analyzed using Genespring v11.0.1. […]

NF-κB = NF-κB luciferase reporter assay in 293T cells
Experimental: 293T were maintained in DMEM supplemented with 10% FBS, 1% glutamax, and 1% penicillin streptomycin. Jurkat 1G5 cells contain a stably-integrated LTR-luciferase reporter gene (Aguilar-Cordova et al., 1994), and were maintained in RPMI supplemented with 10% FBS and 1% glutamax. THP-1 cells were maintained in RPMI supplemented with 10% FBS and 1% glutamax and differentiated to macrophages with 50 ng/ml PMA for 48 hr, followed by a 48 hr rest period prior to stimulation. To measure LTR-driven luciferase, 1G5 cells were lysed and luminescence determined using the Luciferase Assay kit (Promega) according to manufacturer's instructions. Results are expressed as fold change compared to untreated. 293T cells were transfected in 96 well plates with 90 ng ELAM firefly luciferase reporter plasmid (Chow et al., 1999) and 10 ng pRL-TK Renilla plasmid using TransiT LTI (Mirus). 18 hours later cells were treated for 6 hours and luciferase activity determined using the Dual-Glo Luciferase Assay System (Promega). Results are expressed as fold increase relative to transfected, mock treated cells following normalization to Renilla luciferase. Digitonin permeabilization assays were done as described previously (Girardin et al., 2003) with the following modifications: 1G5 cells were stimulated with purified HBP supernatants, or 10 μg/ml flagellin (Invivogen) for 20 minutes at 4° C. in the absence or presence of 2 μg/ml digitonin (Sigma). […]
293T were maintained in DMEM supplemented with 10% FBS, 1% glutamax, and 1% penicillin streptomycin. […] To measure LTR-driven luciferase, 1G5 cells were lysed and luminescence determined using the Luciferase Assay kit (Promega) according to manufacturers instructions. Results are expressed as fold change compared to untreated. […] 18 hours later cells were treated for 6 hours and luciferase activity determined using the Dual-Glo Luciferase Assay System (Promega). Results are expressed as fold increase relative to transfected, mock treated cells following normalization to Renilla luciferase.

THP-1 macrophages = assay: qRT-PCR analysis of THP-1 macrophages treated with synthetic HBP and TLR ligands; settings: 4 hr, with PAM3CSK4 or flagellin; FIG. 3c
Experimental: FIG. 3(c), qRT-PCR analysis of THP-1 macrophages treated with synthetic HBP (sHBP), PAM3CSK4 (PAM3), or flagellin (FLAG) for 4 hr, expressed as fold increase relative to untreated after normalization to GAPDH. Data represent ≥3 independent experiments performed in duplicate. All error bars±s.e.m. *P<0.05, **P<0.01 by ANOVA.
THP-1 cells were maintained in RPMI supplemented with 10% FBS and 1% glutamax and differentiated to macrophages with 50 ng/ml PMA for 48 hr, followed by a 48 hr rest period prior to stimulation. […] Results are expressed as fold change compared to untreated.

O=P(O)(O)OC[C@@H](O)[C@H]1OC(OP(=O)(O)O)[C@@H](O)[C@@H](O)[C@@H]1O (stereo partly drawn) [HBP, D-glycerol-D-manno-heptose-1,7-bisphosphate]
HIV gene expression from latently-infected cells [1]: potently induce HIV gene expression | Kinetics of NF-κB activation and pro-inflammatory transcriptional response [2]: slower, and persisted longer | NF-κB activation after incubation of the product with phosphatase GmhB (NF-κB; FIG. 1e): decreased NF-κB activation | NF-κB activation (NF-κB; product of in vitro reaction of S7P with GmhA and HldA, FIG. 1d): potently stimulated NF-κB | Activation of THP-1 macrophages in combination with TLR ligands (THP-1 macrophages): synergistically activated THP-1 macrophages
